Activity calls are given as the source filed them. No cut-off for these calls is given here.
Assays:
HUVEC [1] = experiment: Antiangiogenic activity in fibronectin pretreated HUVEC assessed as reduction in cell adhesion at 10 uM after 90 mins by DAPI staining based microscopic method; assay type: functional; conditions: Homo sapiens
HUVEC [2] = experiment: Antiangiogenic activity in HUVEC assessed as inhibition of cell morphogenesis by measuring reduction in capillary like structure formation at 10 uM after 6 hrs by inverted microscopic method; assay type: functional, cell-based; conditions: Homo sapiens
HUVEC [3] = experiment: Antimigratory activity in HUVEC at 10 uM after 6 hrs by DAPI staining based Boyden chamber method; assay type: functional, cell-based; conditions: Homo sapiens
HUVEC [4] = experiment: Anti-invasive activity in HUVEC at 10 uM after 24 hrs by DAPI staining based Boyden chamber method; assay type: functional, cell-based; conditions: Homo sapiens
HUVEC [5] = experiment: Cytotoxicity against HUVEC assessed as reduction in cell viability at 10 uM after 96 hrs by MTT assay; assay type: cell-based; conditions: human
HUVEC [6] = experiment: Cytotoxicity against HUVEC assessed as reduction in cell viability up to 20 uM up to 96 hrs by MTT assay; assay type: cell-based; conditions: human
HUVEC [7] = experiment: Cytotoxicity against HUVEC assessed as reduction in cell viability at 20 uM up to 96 hrs by MTT assay; assay type: cell-based; conditions: human
HUVEC [8] = experiment: Cytotoxicity against HUVEC assessed as induction of apoptosis at 10 uM after 24 hrs by Annexin V/7-AAD staining based flow cytometry; assay type: cell-based; conditions: human

SMILES | Activity (HUVEC [1]) | Antiangiogenic activity (active/not active) (HUVEC [2]) | Activity (HUVEC [3]) | Activity (HUVEC [4]) | Activity (HUVEC [5]) | Activity (HUVEC [6]) | Activity (HUVEC [7]) | Activity (HUVEC [8])
COCOc1cc(OC)c(C(=O)/C=C/c2ccc(OC)c(F)c2)c(OCOC)c1CC=C(C)C | Active | Active | Active | inactive | Toxic | – | – | –
COCOc1cc(OC)c(C(=O)/C=C/c2ccccc2F)c(O)c1CC=C(C)C | Active | Active | – | – | – | – | – | –
COCOc1cc(OC)c(C(=O)/C=C/c2ccc(OC)c(F)c2)c(O)c1CC=C(C)C | Active | Active | Active | inactive | – | – | – | –
COCOc1cc(OC)c(C(=O)/C=C/c2ccc(OC)cc2F)c(O)c1CC=C(C)C | Active | Active | – | inactive | – | Non-Toxic | – | –
COc1cc(O)c(CC=C(C)C)c(O)c1C(=O)/C=C/c1ccc(F)cc1 | Active | Active | Active | inactive | – | – | – | –
COc1cc(O)c(CC=C(C)C)c(O)c1C(=O)/C=C/c1ccc(O)cc1 [XANTHOHUMOL] | Active | Active | Active | Active | – | – | Toxic | –
COc1ccc(/C=C/C(=O)c2c(OC)cc(O)c(CC=C(C)C)c2O)c(F)c1 | Active | Active | Active | inactive | – | – | Toxic | –
COc1ccc(/C=C/C(=O)c2c(OC)cc(O)c(CC=C(C)C)c2O)cc1F | Active | Active | Active | inactive | – | – | – | –
COc1cc(O)c(CC=C(C)C)c(O)c1C(=O)/C=C/c1ccccc1F | Active | Active | – | – | – | – | – | –
COCOc1cc(OC)c(C(=O)/C=C/c2ccc(OC)cc2F)c(OCOC)c1CC=C(C)C | Active | Active | Active | inactive | Toxic | – | – | –
COCOc1cc(OC)c(C(=O)/C=C/c2ccc(F)cc2)c(O)c1CC=C(C)C | – | – | Active | inactive | – | – | – | –
COCOc1cc(OC)c(C(=O)/C=C/c2ccc([N+](=O)[O-])cc2)c(O)c1CC=C(C)C | Active | Active | Active | inactive | – | – | Toxic | Toxic
